Results on two compounds are retold here after patent publication US20250213547A1, “METHODS OF TREATING NEUROLOGICAL DISEASES” (priority 2022, published 2025).

Data set [1] is described as follows: Relative stability of crystalline polymorphs. It is filed as physicochemical. The settings on record: Form II compared with Form I.
The target of another data set is T1, CH24H (Homo sapiens, UniProt Q9Y6A2).
T1 construct: from tissue; host or cells: brain of living human trial subjects (in vivo)
As to the kind of experiment: PK/PD (PK/OE/24HC) turnover modeling. The settings on record: turnover model estimate. The text has this:
Similar to the PK model, the PK/PD model was developed as a population mixed-effects model and incorporated the individual PK parameters from the final PK population model. A turnover model was used to characterize changes in plasma 24HC overtime. Plasma 24HC was considered to be at steady-state baseline (BL) before the start of treatment. […] PK/PD covariates were screened in a procedure similar to the PK covariates. In the final PK/PD model, two covariates, A1-AGLP and body weight affected baseline 24HC.
The PK/PD analysis dataset consisted of 2165 24HC observations from 3 phase I trials. Four subjects from the ELEKTRA study with large IC50 estimates were excluded from the dataset. Additionally, 42 individuals with large conditional weighted residuals were excluded from the dataset. The final dataset contained 2107 24HC observations from 248 subjects. Table 26 summarizes the modeling dataset with reference to example numbers, respective clinical trial ID, subject numbers, regimen, and number of observations and doses. Tables 27 and 28 summarize the categorical covariates used in PK/OE/24HC analysis from the entire dataset and the ELEKTRA study subset, respectively.
Tables 29 and 30 summarize the mean continuous variables used in the PK/OE/24HC covariate analysis from the entire PK/OE/24HC population studied and the ELEKTRA subset, respectively. In addition to the shared variables, the PK/PD dataset contained the individual final estimates of the population PK model parameters (IND_ALAG1, IND_KA, IND_CL, IND_V2, IND_Q, IND_V3, and IND_F1). Subjects without individual PK parameter estimates (e.g. subjects from the placebo arms) were assigned to the respective geometric mean of the estimated individual parameter values.
A turnover model was used to describe changes in 24HC concentration over time. […] The following formula estimates change in 24HC: […]
The indirect exposure effect (EFF) was estimated by an Imax model:
The effect-site concentration was implemented as a delayed equilibrium with the plasma/brain transit rate parameter (KPLBR):
The scaling parameter KPLBR was previously estimated in a competitive enzyme occupancy model derived from PET brain imaging data (NCT02497235, Table 19). Parameters derived from this base model were fixed at their previous final PK population estimates derived from example 12. However, no random effects could be estimated without enzyme occupancy data. FIG. 26 depicts the basic model structure in relation to observed and unobserved data. There was a strong growth-related increase in baseline 24HC levels, which was only observed in young subjects.
The following variables were screened by forward inclusion, backward exclusion F-tests: • Growth/maturity: Weight, BMI, and age • Protein binding: Albumin (ALB), A1-AGLP • Liver function: AST, ALT, GGT, and ALP • Kidney function: Creatinine clearance (CRCL), eGFR • Categorical variables: Asian, sex. Ethnicity, and disease type

T1 sequence (Q9Y6A2 whole entry): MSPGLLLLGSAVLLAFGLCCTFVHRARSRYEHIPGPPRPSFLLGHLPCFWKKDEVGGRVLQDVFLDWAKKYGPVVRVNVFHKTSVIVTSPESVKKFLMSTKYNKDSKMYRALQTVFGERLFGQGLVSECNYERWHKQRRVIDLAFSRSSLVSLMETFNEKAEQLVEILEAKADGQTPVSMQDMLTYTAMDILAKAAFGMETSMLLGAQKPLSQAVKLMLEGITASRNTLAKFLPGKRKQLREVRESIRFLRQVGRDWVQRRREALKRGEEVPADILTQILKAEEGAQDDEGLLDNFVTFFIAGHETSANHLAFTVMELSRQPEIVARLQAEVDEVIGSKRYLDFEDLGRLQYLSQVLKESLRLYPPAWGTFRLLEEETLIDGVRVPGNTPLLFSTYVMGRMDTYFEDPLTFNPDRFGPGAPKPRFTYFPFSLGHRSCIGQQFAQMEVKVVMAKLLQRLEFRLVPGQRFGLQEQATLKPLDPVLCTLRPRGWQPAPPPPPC

On to `O=C(c1cccnc1-c1ccncc1)N1CCC(O)(Cc2ccccc2)CC1` [Form II, (4-benzyl-4-hydroxypiperidin-1-yl) (2,4′-bipyridin-3-yl) methanone], for which, in data set [1], the polymorph stability entry is listed as “more stable than Form I”. `CC(C)C(O)CC[C@@H](C)[C@H]1CC[C@H]2[C@@H]3CC=C4C[C@@H](O)CC[C@]4(C)[C@H]3CC[C@]12C` (stereo partly drawn) [24HC, 24-hydroxycholesterol]: on CH24H, the “24HC elimination rate (KOUT)” value is 0.02 ng/mL/h and the “24HC synthesis rate (KIN)” value was 1.09 h⁻¹.
